Results as given in PMC10533412, “Phosphoantigens glue butyrophilin 3A1 and 2A1 to activate Vγ9Vδ2 T cells” (Nature, 2023).
“And” between values parts separate entries of the source, which are not always exact repeats. Equal values may be shown once.

System: BTN2A−/− MIA PaCa-2 (BTN2A1/BTN2A2 KO) cells
Assay: Cell killing assay with BTN2A−/− MIA PaCa-2 (BTN2A1/BTN2A2 KO) cells expressing BTN2A1/BTN2A2 variants
Conditions: for cell killing, Means, Fig. 6e: N 4; for cell killing, single replicate, Fig. 6e: listed as HMBPP
[1] = 0.1 μM, cells expressing 2A1 (full)
[2] = 0.1 μM, cells expressing 2A2 B30.2 W374R/M506T (with 2A1 other segments)
[3] = 0.1 μM, cells expressing 2A2 W374R/M506T (with 2A1 EC)
[4] = 0.1 μM, cells expressing 2A2 W374R/M506T (wtih 2A1 JM)
[5] = 0.1 μM, cells expressing 2A2 W374R/M506T
[6] = 1 μM, cells expressing 2A1 (full)
[7] = 1 μM, cells expressing 2A2 B30.2 W374R/M506T (with 2A1 other segments)
[8] = 1 μM, cells expressing 2A2 W374R/M506T (with 2A1 EC)
[9] = 1 μM, cells expressing 2A2 W374R/M506T (wtih 2A1 JM)
[10] = 1 μM, cells expressing 2A2 W374R/M506T
[11] = 10 μM, cells expressing 2A1 (full)
[12] = 10 μM, cells expressing 2A2 B30.2 W374R/M506T (with 2A1 other segments)
[13] = 10 μM, cells expressing 2A2 W374R/M506T (with 2A1 EC)
[14] = 10 μM, cells expressing 2A2 W374R/M506T (wtih 2A1 JM)
[15] = 10 μM, cells expressing 2A2 W374R/M506T
[16] = 2A1 WT, source data Ext. Fig. 3c
[17] = 2A1 ∆C, source data Ext. Fig. 3c
[18] = Ext. Fig. 6d, cells expressing 2A1 WT, three-parameter fit
[19] = Ext. Fig. 6d, cells expressing 2A2 G352Y354QR/M506T/W374R, three-parameter fit
[20] = Ext. Fig. 6d, cells expressing 2A2 G352Y354QR, three-parameter fit
[21] = Ext. Fig. 6d, cells expressing 2A2 M506T, three-parameter fit

SMILES: C/C(=C\COP(=O)(O)OP(=O)(O)O)CO [Compound 1, (E)-4-hydroxy-3-methylbut-2-en-1-yl diphosphate]
- cell killing, Means, Fig. 6e (0.1 μM, NT cells): 15.31
- cell killing, single replicate, Fig. 6e (0.1 μM, NT cells): 16.9534 and 12.1556 and 17.488 and 14.6256
- cell killing, Means, Fig. 6e [1]: 43.2
- cell killing, single replicate, Fig. 6e [1]: 41.0547 and 41.9242 and 44.3091 and 45.5217
- cell killing, Means, Fig. 6e [2]: 37.63
- cell killing, single replicate, Fig. 6e [2]: 30.7526 and 48.9339 and 41.228 and 29.5964
- cell killing, Means, Fig. 6e [3]: 10.65
- cell killing, single replicate, Fig. 6e [3]: 10.0494 and 11.5088 and 9.171 and 11.8833
- cell killing, Means, Fig. 6e [4]: 21.79
- cell killing, single replicate, Fig. 6e [4]: 18.9096 and 21.2355 and 31.0049 and 16.0148
- cell killing, Means, Fig. 6e [5]: 6.989
- cell killing, single replicate, Fig. 6e [5]: 8.189 and 6.668 and 2.002 and 11.0964
- cell killing, Means, Fig. 6e (1 μM, NT cells): 19.83
- cell killing, single replicate, Fig. 6e (1 μM, NT cells): 17.72 and 22.5709 and 17.5879 and 21.4385
- cell killing, Means, Fig. 6e [6]: 47.49
- cell killing, single replicate, Fig. 6e [6]: 44.8999 and 44.0198 and 51.2118 and 49.8148
- cell killing, Means, Fig. 6e [7]: 47.88
- cell killing, single replicate, Fig. 6e [7]: 42.711 and 50.2729 and 52.3554 and 46.1815
- cell killing, Means, Fig. 6e [8]: 18.17
- cell killing, single replicate, Fig. 6e [8]: 13.1292 and 15.284 and 20.3978 and 23.864
- cell killing, Means, Fig. 6e [9]: 29.03
- cell killing, single replicate, Fig. 6e [9]: 27.7855 and 29.0017 and 26.4668 and 32.8608
- cell killing, Means, Fig. 6e [10]: 15.67
- cell killing, single replicate, Fig. 6e [10]: 11.4295 and 17.9078 and 14.2342 and 19.1099
- cell killing, Means, Fig. 6e (10 μM, NT cells): 24.11
- cell killing, single replicate, Fig. 6e (10 μM, NT cells): 29.5378 and 18.9356 and 23.5884 and 24.3846
- cell killing, Means, Fig. 6e [11]: 46.91
- cell killing, single replicate, Fig. 6e [11]: 43.2704 and 47.0695 and 47.7293 and 49.5621
- cell killing, Means, Fig. 6e [12]: 46.58
- cell killing, single replicate, Fig. 6e [12]: 39.3517 and 47.3098 and 45.3387 and 54.323
- cell killing, Means, Fig. 6e [13]: 29.48
- cell killing, single replicate, Fig. 6e [13]: 34.2513 and 25.8478 and 33.2665 and 24.5352
- cell killing, Means, Fig. 6e [14]: 29.83
- cell killing, single replicate, Fig. 6e [14]: 29.1476 and 34.1243 and 24.0842 and 31.9573
- cell killing, Means, Fig. 6e [15]: 28.16
- cell killing, single replicate, Fig. 6e [15]: 27.8321 and 21.0649 and 28.437 and 35.311
- Bottom, best-fit value, log(agonist) vs. response (three parameters) [16]: 30.67
- LogEC50, best-fit value [16]: -7.891
- Span (best-fit value) [16]: 32.29
- Top, best-fit value, log(agonist) vs. response (three parameters) [16]: 62.96
- Bottom, best-fit value, log(agonist) vs. response (three parameters) [17]: 18.53
- LogEC50, best-fit value [17]: -4.358
- Span (best-fit value) [17]: 32.38
- Top, best-fit value, log(agonist) vs. response (three parameters) [17]: 50.91
- Bottom (best-fit value) [18]: 37.79
- Span (best-fit value) [18]: 24.09
- Top (best-fit value) [18]: 61.87
- Bottom (best-fit value) [19]: 32.14
- Span (best-fit value) [19]: 22.27
- Top (best-fit value) [19]: 54.4
- Bottom (best-fit value) [20]: 19.82
- Span (best-fit value) [20]: 7.278
- Top (best-fit value) [20]: 27.1
- Bottom (best-fit value) [21]: 17.84
- Span (best-fit value) [21]: 32.36
- Top (best-fit value) [21]: 50.2
